In US20020026053A1, “Novel 3-(substituted) -2- indolinones compounds and use thereof as inhibitors of protein kinase activity” (priority 1997, published 2002):

What follows are molecules tested against T1, EGFR (Homo sapiens, UniProt P00533) (assay: Biochemical EGFR Assay). Conditions: protocol P.167.
T1 construct: endogenous in cells; host or cells: A431 cells (lysate, captured with SUMO1 anti-EGFR antibody)
Parameters: concentration or dose not given beside the values
Method in brief: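 EGFR from A431 lysate was captured on anti-EGFR-coated wells and preincubated 30 min with compound (diluted 1:10 in TBS) at room temperature. After ATP/MnCl2 phosphorylation for 5 min, the reaction was stopped with EDTA. Phosphotyrosine was detected by ELISA (anti-phosphotyrosine, peroxidase conjugate, ABTS) at 410 nm.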

T1 sequence (P00533 25-1210): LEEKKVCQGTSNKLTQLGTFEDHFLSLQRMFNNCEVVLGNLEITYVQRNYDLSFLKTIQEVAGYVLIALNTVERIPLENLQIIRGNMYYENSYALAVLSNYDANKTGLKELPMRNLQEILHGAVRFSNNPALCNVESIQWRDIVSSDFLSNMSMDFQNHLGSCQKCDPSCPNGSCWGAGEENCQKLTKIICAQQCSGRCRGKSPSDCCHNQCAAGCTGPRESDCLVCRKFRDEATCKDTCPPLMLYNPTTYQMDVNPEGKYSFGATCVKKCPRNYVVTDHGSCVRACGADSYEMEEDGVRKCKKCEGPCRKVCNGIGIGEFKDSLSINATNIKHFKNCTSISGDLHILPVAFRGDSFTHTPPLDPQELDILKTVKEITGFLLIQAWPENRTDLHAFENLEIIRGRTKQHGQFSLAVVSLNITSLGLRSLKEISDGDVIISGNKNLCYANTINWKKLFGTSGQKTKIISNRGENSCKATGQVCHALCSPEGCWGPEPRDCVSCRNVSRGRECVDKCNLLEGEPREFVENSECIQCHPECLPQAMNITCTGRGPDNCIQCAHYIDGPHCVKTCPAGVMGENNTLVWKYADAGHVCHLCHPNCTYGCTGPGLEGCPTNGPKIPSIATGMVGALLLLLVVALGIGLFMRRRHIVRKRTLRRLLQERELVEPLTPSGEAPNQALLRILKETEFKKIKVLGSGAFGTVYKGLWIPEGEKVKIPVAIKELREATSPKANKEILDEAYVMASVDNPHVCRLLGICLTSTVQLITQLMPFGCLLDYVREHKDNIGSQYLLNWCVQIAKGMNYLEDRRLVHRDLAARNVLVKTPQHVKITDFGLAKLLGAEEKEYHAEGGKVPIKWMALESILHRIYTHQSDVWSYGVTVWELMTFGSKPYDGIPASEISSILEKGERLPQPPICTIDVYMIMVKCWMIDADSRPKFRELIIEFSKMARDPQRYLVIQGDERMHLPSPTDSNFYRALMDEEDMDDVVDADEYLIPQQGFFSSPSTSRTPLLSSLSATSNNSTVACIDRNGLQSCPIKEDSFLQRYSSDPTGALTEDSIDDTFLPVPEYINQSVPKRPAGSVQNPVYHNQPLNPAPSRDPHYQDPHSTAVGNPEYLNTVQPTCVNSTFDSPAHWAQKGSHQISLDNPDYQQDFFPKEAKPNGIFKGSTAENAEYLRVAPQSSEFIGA

| SMILES | Biochem EGFR % Inhibition (P.167) [%] |
| --- | --- |
| COC1CCCN1C=C1C(=O)Nc2c(Br)cc(Br)cc21 (racemic) [10740/A04] | 5.2 |
| COC1CCCN1C=C1C(=O)Nc2ccc(I)cc21 (racemic) [10740/B04] | 36.9 |
| Cc1c(Br)cc(Br)c2c1C(=Cc1ccc(CO)o1)C(=O)N2 [10739/H11] | 49.9 |
| O=C1Nc2c(Br)cc(Br)cc2C1=Cc1cnc2ccccc2c1 [10740/A02] | −2.4 |
| O=C1Nc2c(Br)cc(Br)cc2C1=Cc1ccnc2ccccc12 [10740/A03] | 8.2 |
| O=C1Nc2c(Br)cc(Br)cc2C1=Cc1ccsc1 [10740/A05] | 30.3 |
| O=C1Nc2c(Br)cc(Br)cc2C1=Cc1ccc2ccccc2n1 [10740/A06] | 13.1 |
| Cn1cc(C=C2C(=O)Nc3c(Br)cc(Br)cc32)c2ccccc21 [10740/A07] | 18.7 |
| Cc1[nH]c2ccccc2c1C=C1C(=O)Nc2c(Br)cc(Br)cc21 [10740/A08] | −7.9 |
| O=C1Nc2c(Br)cc(Br)cc2C1=Cc1cc(Br)cs1 [10740/A10] | 21.9 |
| CCCCOc1ccc(C=C2C(=O)Nc3c(Br)cc(Br)cc32)cc1 [10740/A11] | 26.0 |
| O=C1Nc2ccc(I)cc2C1=Cc1cnc2ccccc2c1 [10740/B02] | 46.1 |
| O=C1Nc2ccc(I)cc2C1=Cc1ccnc2ccccc12 [10740/B03] | 40.1 |
| O=C1Nc2ccc(I)cc2C1=Cc1ccsc1 [10740/B05] | 30.7 |
| O=C1Nc2ccc(I)cc2C1=Cc1ccc2ccccc2n1 [10740/B06] | 44.4 |
| Cn1cc(C=C2C(=O)Nc3ccc(I)cc32)c2ccccc21 [10740/B07] | 48.9 |
| Cc1[nH]c2ccccc2c1C=C1C(=O)Nc2ccc(I)cc21 [10740/B08] | 34.8 |
| O=C1Nc2ccc(I)cc2C1=Cc1cc(Br)cs1 [10740/B10] | 39.9 |
| CCCCOc1ccc(C=C2C(=O)Nc3ccc(I)cc32)cc1 [10740/B11] | 48.1 |
| Cc1c(Br)ccc2c1C(=Cc1cnc3ccccc3c1)C(=O)N2 [10740/C02] | 15.6 |
| Cc1c(Br)ccc2c1C(=Cc1ccnc3ccccc13)C(=O)N2 [10740/C03] | 7.2 |
| COC1CCCN1C=C1C(=O)Nc2ccc(Br)c(C)c21 (stereo not shown) [10740/C04] | 7.8 |
| Cc1c(Br)ccc2c1C(=Cc1ccsc1)C(=O)N2 [10740/C05] | 3.5 |
| Cc1c(Br)ccc2c1C(=Cc1ccc3ccccc3n1)C(=O)N2 [10740/C06] | 18.2 |
| Cc1c(Br)ccc2c1C(=Cc1cn(C)c3ccccc13)C(=O)N2 [10740/C07] | 5.0 |

| SMILES | Biochem EGFR % Inhibition (P.167) [%] |
| --- | --- |
| Cc1[nH]c2ccccc2c1C=C1C(=O)Nc2ccc(Br)c(C)c21 [10740/C08] | 10.7 |
| Cc1c(Br)ccc2c1C(=Cc1cc(Br)cs1)C(=O)N2 [10740/C10] | 21.9 |
| CCCCOc1ccc(C=C2C(=O)Nc3ccc(Br)c(C)c32)cc1 [10740/C11] | 18.7 |
| CNS(=O)(=O)c1ccc2c(c1)C(=Cc1cnc3ccccc3c1)C(=O)N2 [10740/D02] | 0.0 |
| CNS(=O)(=O)c1ccc2c(c1)C(=Cc1ccnc3ccccc13)C(=O)N2 [10740/D03] | −6.9 |
| CNS(=O)(=O)c1ccc2c(c1)C(=CN1CCCC1OC)C(=O)N2 (stereo not shown) [10740/D04] | −1.2 |
| CNS(=O)(=O)c1ccc2c(c1)C(=Cc1ccsc1)C(=O)N2 [10740/D05] | 7.4 |
| CNS(=O)(=O)c1ccc2c(c1)C(=Cc1ccc3ccccc3n1)C(=O)N2 [10740/D06] | 5.8 |
| CNS(=O)(=O)c1ccc2c(c1)C(=Cc1cn(C)c3ccccc13)C(=O)N2 [10740/D07] | −3.0 |
| CNS(=O)(=O)c1ccc2c(c1)C(=Cc1c(C)[nH]c3ccccc13)C(=O)N2 [10740/D08] | −5.7 |
| CNS(=O)(=O)c1ccc2c(c1)C(=Cc1cc(Br)cs1)C(=O)N2 [10740/D10] | 9.9 |
| CCCCOc1ccc(C=C2C(=O)Nc3ccc(S(=O)(=O)NC)cc32)cc1 [10740/D11] | 19.3 |
| O=C1Nc2ccc(S(=O)(=O)Nc3ccc(C(F)(F)F)cc3)cc2C1=Cc1cnc2ccccc2c1 [10740/E02] | −7.7 |
| O=C1Nc2ccc(S(=O)(=O)Nc3ccc(C(F)(F)F)cc3)cc2C1=Cc1ccnc2ccccc12 [10740/E03] | 24.6 |
| COC1CCCN1C=C1C(=O)Nc2ccc(S(=O)(=O)Nc3ccc(C(F)(F)F)cc3)cc21 (stereo not shown) [10740/E04] | 12.3 |
| O=C1Nc2ccc(S(=O)(=O)Nc3ccc(C(F)(F)F)cc3)cc2C1=Cc1ccsc1 [10740/E05] | 29.1 |
| O=C1Nc2ccc(S(=O)(=O)Nc3ccc(C(F)(F)F)cc3)cc2C1=Cc1ccc2ccccc2n1 [10740/E06] | 0.0 |
| Cn1cc(C=C2C(=O)Nc3ccc(S(=O)(=O)Nc4ccc(C(F)(F)F)cc4)cc32)c2ccccc21 [10740/E07] | 2.7 |
| Cc1[nH]c2ccccc2c1C=C1C(=O)Nc2ccc(S(=O)(=O)Nc3ccc(C(F)(F)F)cc3)cc21 [10740/E08] | 3.1 |
| O=C1Nc2ccc(S(=O)(=O)Nc3ccc(C(F)(F)F)cc3)cc2C1=Cc1cc(Br)cs1 [10740/E10] | 33.0 |
| CCCCOc1ccc(C=C2C(=O)Nc3ccc(S(=O)(=O)Nc4ccc(C(F)(F)F)cc4)cc32)cc1 [10740/E11] | 8.8 |
| O=C1Nc2ccc(S(=O)(=O)N3CCOCC3)cc2C1=Cc1cnc2ccccc2c1 [10740/F02] | 5.8 |
| O=C1Nc2ccc(S(=O)(=O)N3CCOCC3)cc2C1=Cc1ccnc2ccccc12 [10740/F03] | 16.8 |
| COC1CCCN1C=C1C(=O)Nc2ccc(S(=O)(=O)N3CCOCC3)cc21 (stereo not shown) [10740/F04] | 11.1 |
| O=C1Nc2ccc(S(=O)(=O)N3CCOCC3)cc2C1=Cc1ccsc1 [10740/F05] | 14.8 |

| SMILES | Biochem EGFR % Inhibition (P.167) [%] |
| --- | --- |
| O=C1Nc2ccc(S(=O)(=O)N3CCOCC3)cc2C1=Cc1ccc2ccccc2n1 [10740/F06] | 19.9 |
| Cn1cc(C=C2C(=O)Nc3ccc(S(=O)(=O)N4CCOCC4)cc32)c2ccccc21 [10740/F07] | −4.2 |
| Cc1[nH]c2ccccc2c1C=C1C(=O)Nc2ccc(S(=O)(=O)N3CCOCC3)cc21 [10740/F08] | 5.0 |
| O=C1Nc2ccc(S(=O)(=O)N3CCOCC3)cc2C1=Cc1cc(Br)cs1 [10740/F10] | 9.5 |
| CCCCOc1ccc(C=C2C(=O)Nc3ccc(S(=O)(=O)N4CCOCC4)cc32)cc1 [10740/F11] | 5.4 |
| O=C1Nc2ccc(CCCl)cc2C1=Cc1cnc2ccccc2c1 [10740/G02] | −9.4 |
| O=C1Nc2ccc(CCCl)cc2C1=Cc1ccnc2ccccc12 [10740/G03] | 19.5 |
| COC1CCCN1C=C1C(=O)Nc2ccc(CCCl)cc21 (stereo not shown) [10740/G04] | 7.6 |
| O=C1Nc2ccc(CCCl)cc2C1=Cc1ccsc1 [10740/G05] | 18.7 |
| O=C1Nc2ccc(CCCl)cc2C1=Cc1ccc2ccccc2n1 [10740/G06] | −1.2 |
| Cn1cc(C=C2C(=O)Nc3ccc(CCCl)cc32)c2ccccc21 [10740/G07] | 27.9 |
| Cc1[nH]c2ccccc2c1C=C1C(=O)Nc2ccc(CCCl)cc21 [10740/G08] | −9.1 |
| O=C1Nc2ccc(CCCl)cc2C1=Cc1cc(Br)cs1 [10740/G10] | 1.9 |
| CCCCOc1ccc(C=C2C(=O)Nc3ccc(CCCl)cc32)cc1 [10740/G11] | −3.4 |
| Cc1c(Br)cc(Br)c2c1C(=Cc1cnc3ccccc3c1)C(=O)N2 [10740/H02] | −9.1 |
| Cc1c(Br)cc(Br)c2c1C(=Cc1ccnc3ccccc13)C(=O)N2 [10740/H03] | 16.0 |
| COC1CCCN1C=C1C(=O)Nc2c(Br)cc(Br)c(C)c21 (stereo not shown) [10740/H04] | −21.0 |
| Cc1c(Br)cc(Br)c2c1C(=Cc1ccsc1)C(=O)N2 [10740/H05] | −4.4 |
| Cc1c(Br)cc(Br)c2c1C(=Cc1ccc3ccccc3n1)C(=O)N2 [10740/H06] | 4.8 |
| Cc1c(Br)cc(Br)c2c1C(=Cc1cn(C)c3ccccc13)C(=O)N2 [10740/H07] | −5.3 |
| Cc1[nH]c2ccccc2c1C=C1C(=O)Nc2c(Br)cc(Br)c(C)c21 [10740/H08] | −24.3 |
| Cc1c(Br)cc(Br)c2c1C(=Cc1cc(Br)cs1)C(=O)N2 [10740/H10] | −25.5 |
| CCCCOc1ccc(C=C2C(=O)Nc3c(Br)cc(Br)c(C)c32)cc1 [10740/H11] | 0.9 |
